Laboratory results taken from patent publication US20100069388A1, “N-HYDROXYACRYLAMIDE COMPOUNDS” (ASTELLAS PHARMA INC., priority 2006, published 2010).
Where a name gives a salt, the structure may show the parent alone.

Assays:
[1] = tested on: human histone deacetylase (partially purified from Jurkat cells); assay: Test 1: Determination of histone deacetylase inhibitor activity ([3H] acetyl histone deacetylation); assay type: biochemical; conditions: partially purified human HDAC from Jurkat cells, [3H] acetyl-labeled histones, 25° C., 30 minutes; read-out: Test 1: HDAC inhibitory activity IC50
Description: The partial purification of human histone deacetylase, the preparation of [^3H] acetyl histones, and the assay for histone deacetylase activity were performed basically according to the method as proposed by Yoshida et al. as follows.
The human histone deacetylase was partially purified from human T cell leukemia Jurkat cells. Jurkat cells (5×10^8 cells) were suspended in 40 mL of the HDA buffer consisting of 15 mM potassium phosphate, pH 7.5, 5% glycerol and 0.2 mM EDTA. After homogenization, nuclei were collected by centrifugation (35,000×g, 10 min) and homogenized in 20 mL of the same buffer supplemented with 1 M (NH4)2SO4. The viscous homogenate was sonicated and clarified by centrifugation (35,000×g, 10 min), and the deacetylase was precipitated by raising the concentration of (NH4)2SO4 to 3.5 M. The precipitated protein was dissolved in 10 mL of the HDA buffer and dialyzed against 4 liters of the same buffer. The dialyzate was then loaded onto a DEAE-cellulose (Whatman DE52) column (25×85 mm) equilibrated with the same buffer and eluted with 300 mL of a linear gradient (0-0.6 M) of NaCl. A single peak of histone deacetylase activity appeared between 0.3 and 0.4 M NaCl.
To obtain [^3H] acetyl-labeled histone as the substrate for the histone deacetylase assay, 1×10^8 cells of Jurkat in 20 mL of RPMI-1640 medium (supplemented with 10% FBS, penicillin (50 units/mL) and streptomycin (50 μg/mL)) were incubated with 300 MBq [^3H] sodium acetate in the presence of 5 mM sodium butyrate for 30 minutes in 5% CO2-95% air atmosphere at 37° C. in a 75 cm^2 flask, harvested into a centrifuge tube (50 mL), collected by centrifugation at 1000 rpm for 10 minutes, and washed once with phosphate-buffered saline. The washed cells were suspended in 15 mL of ice-cold lysis buffer (10 mM Tris-HCl, 50 mM sodium bisulfite, 1% Triton X-100, 10 mM MgCl2, 8.6% sucrose, pH 6.5). After Dounce homogenization (30 stroke), the nuclei were collected by centrifugation at 1000 rpm for 10 minutes, washed 3 times with 15 mL of the lysis buffer, and once with 15 mL of ice-cooled washing buffer (10 mM Tris-HCl, 13 mM EDTA, pH 7.4) successively. The pellet was suspended in 6 mL of ice-cooled water using a mixer, and 68 μl of H2SO4 was added to the suspension to give a concentration of 0.4 N. After incubation at 4° C. for 1 hour, the suspension was centrifuged for 5 minutes at 15,000 rpm, and the supernatant was taken and mixed with 60 mL of acetone. After overnight incubation at −20° C., the coagulated material was collected by microcentrifugation, air-dried, and stored at −80° C.
For the standard assay, 10 μl of [^3H] acetyl-labeled histones were added to 90 μl of the enzyme fraction, and the mixture was incubated at 25° C. for 30 minutes. The reaction was stopped by addition of 10 μl of HCl aq. The released [^3H] acetic acid was extracted with 1 mL of ethyl acetate, and 0.9 mL of the solvent layer was taken into 10 mL of toluene scintillation solution for determination of radioactivity.

[2] = tested on: splenic cells of Lewis rats; assay: Test 2: Determination of T-cell growth inhibitor activity (T lymphocyte blastogenesis, Concanavalin A, AlamarBlue); assay type: cell-based; conditions: Lewis rat splenic cells, Concanavalin A 1 μg/mL, 72 hours, read-out: Test 2: T-cell growth inhibitory activity IC50
Description: The T lymphocyte blastogenesis test was performed in microtiter plates with each well containing 1.5×10^5 splenic cells of Lewis rats in 0.1 mL RPMI-1640 medium supplemented with 10% fetal bovine serum (FBS), […] 2-mercaptoethanol, penicilln (100 units/mL) and streptomycin (100 μg/mL), to which Concanavalin A (1 μg/mL) was added. The cells were incubated at 37° C. in a humidified atmosphere of 5% CO2 for 72 hours. After the culture period, suppressive activities of the test compounds in T lymphocyte blastogenesis were quantified by AlamarBlue (trademark) Assay. The test samples were dissolved in DMSO and further diluted with RPMI-1640 medium and added to the culture. The activities of the test compounds were expressed as IC50.

IC50 [1] [nM]	SMILES	IC50 [2] [nM]
1.7	O=C(/C=C/c1cnc(NCCNC(=O)c2ccc(Cl)cc2)c(Cl)c1)NO [Example 3, 4-chloro-N-[2-({3-chloro-5-[(1E)-3-(hydroxyamino)-3-oxo-1-propen-1-yl]-2-pyridinyl}amino)ethyl]benzamide hydrochloride]	18
2.3	C[C@@H](Nc1cnc(/C=C/C(=O)NO)cn1)C(=O)NC1CCCCCC1 [Example 87]	3.2
3.9	C[C@H](CNC(=O)C1CCCCC1)Nc1cnc(/C=C/C(=O)NO)cn1 [Example 66]	21
1.5	CC(C)[C@@H](Nc1cnc(/C=C/C(=O)NO)cn1)C(=O)Nc1ccccc1 [Example 91]	2.6
8.8	C[C@H](CN(C)Cc1ccc(Cl)cc1)Nc1ncc(/C=C/C(=O)NO)cc1Cl [Example 11]	6.2
6.8	O=C(/C=C/c1cnc(NCCNC(=O)C2CCCCC2)c(Cl)c1)NO [Example 10]	17
8.2	C[C@@H](Nc1cnc(/C=C/C(=O)NO)cn1)C(=O)NC1Cc2ccccc2C1 [Example 86]	28
9.1	CC(C)[C@@H](Nc1cnc(/C=C/C(=O)NO)cn1)C(=O)NCC1CCCCC1 [Example 57]	4.7
25	C[C@@H](Nc1ncc(/C=C/C(=O)NO)cc1Cl)C(=O)NCC1CCCCC1 [Example 49, N^2-{3-chloro-5-[(1E)-3-(hydroxyamino)-3-oxoprop-1-en-1-yl]pyridin-2-yl}-N^1-(cyclohexylmethyl)-D-alaninamide]	17
0.78	C[C@H](CN(C)CC1CCCCC1)Nc1cnc(/C=C/C(=O)NO)cn1 [Example 39]	0.23
4	C[C@H](CN(C)Cc1ccccc1)Nc1cnc(/C=C/C(=O)NO)cn1 [Example 36]	1.5
2.7	C[C@@H](Nc1cnc(/C=C/C(=O)NO)cn1)C(=O)N[C@]12CC3C[C@H](C[C@H](C3)C1)C2 [Example 88]	1.5
6	O=C(/C=C/c1cnc(NCCOc2ccccc2)cn1)NO [Example 23]	21
